The numbers were not newly measured in patent US10112939B2, “Tied-back benzamide derivatives as potent rock inhibitors” (Bristol-Myers Squibb Company, priority 2014, dated 2018), which cites them from elsewhere.

Read-outs that look alike come from different tables or passages of the source.

Data set [1] concerns spontaneously hypertensive rat, renal hypertensive rat and deoxycortisone acetate salt hypertensive rat models. As to conditions: cited from earlier work.
For data set [2], the system named is neointimal formation in rats. Particulars: balloon injury model; cited from earlier work.
Another data set concerns Dahl salt-sensitive rats. Particulars: rat, in vivo; cited from earlier work.

Take `C[C@@H](N)[C@H]1CC[C@H](C(=O)Nc2ccncc2)CC1` [Example Y-27632, Y-27632]: the figures for the blood pressure entry in data set [1] (control rats) and in data set [1] (three rat models of hypertension) were “only a minor effect on blood pressure” and “significantly decrease blood pressure”, respectively. In addition, the neointimal formation result in data set [2] is “inhibited neointimal formation”. The “ventricular hypertrophy, fibrosis and function” value with Dahl salt-sensitive rats was “improve ventricular hypertrophy, fibrosis and function”.
